Results taken from patent US11938125B2, “Use of Hsp70 as a regulator of enzymatic activity” (Zevra Denmark A/S, priority 2008, dated 2024).

B1: rASM: recombinant acid sphingomyelinase (protein, UniProt P17405 47-631, looked up)
Sphingomyelin …: LALSDSRVLWAPAEAHPLSPQGHPARLHRIVPRLRDVFGWGNLTCPICKGLFTAINLGLKKEPNVARVGSVAIKLCNLLKIAPPAVCQSIVHLFEDDMVEVWRRSVLSPSEACGLLLGSTCGHWDIFSSWNISLPTVPKPPPKPPSPPAPGAPVSRILFLTDLHWDHDYLEGTDPDCADPLCCRRGSGLPPASRPGAGYWGEYSKCDLPLRTLESLLSGLGPAGPFDMVYWTGDIPAHDVWHQTRQDQLRALTTVTALVRKFLGPVPVYPAVGNHESTPVNSFPPPFIEGNHSSRWLYEAMAKAWEPWLPAEALRTLRIGGFYALSPYPGLRLISLNMNFCSRENFWLLINSTDPAGQLQWLVGELQAAEDRGDKVHIIGHIPPGHCLKSWSWNYYRIVARYENTLAAQFFGHTHVDEFEVFYDEETLSRPLAVAFLAPSATTYIGLNPGYRVYQIDGNYSGSSHVVLDHETYILNLTQANIPGAIPHWQLLYRARETYGLPNTLPTAWHNLVYRMRGDMQLFQTFWFLYHKGHPPSEPCGTPCRLATLCAQLSARADSPALCRHLMPDGSLPEAQSLWPRPLFC

Legend:
WT and Hsp70 iMEFs = assay: Viability of MEFs (MTT reduction); type: cell-based; settings: 3 h
Experimental: The viability of cells was analyzed by the 3-(4,5-dimethylthiazole-2-yl)-2,5-diphenyltetrazolium bromide (MTT) reduction assay as described previously^67.
Assays for cell viability. Cell density was assessed by the 3-(4,5-dimethylthiazole-2-y)-2,5-[…] (MTT, SIGMA-Aldrich) reduction assay essentially as described in the art. Apoptosis-like cell death was assessed by staining the cells with 0.05 μg/ml Hoechst 33342 (Molecular Probes) and counting cells with condensed nuclei in an inverted Olympus IX-70 fluorescent Microscope (Filter U-MWU 330-385 nm). For each experiment a minimum of eight randomly chosen areas were counted.

[1] = system: lysosomes of WT and Hsp70 iMEFs; assay: Cytosolic cathepsin activity (zFRase) in MEFs; type: cell-based, murine; settings: 3 h
Experimental: Cells were treated with cisplatin as indicated, cytosolic fractions were obtained by digitonin treatment and cytosolic cysteine cathepsin (zFRase) and caspase-3-like (DEVDase) activities were determined. […] The total and cytoplasmic (digitonin-extracted) cathepsin activities were measured in digitonin-treated samples using zFR-AFC (Enzyme System Products) probe as described in the art.

lysosomes of Hsp70-MEFs = assay: Live single-cell imaging of loss of lysosomal integrity (photo-oxidation) in Hsp70-MEFs; type: cell-based, murine; settings: subtoxic desipramine 12.5 and 25 μM, 3 h
Experimental: Assays for lysosomal integrity. Sub-confluent cells incubated with 2 μg/ml acridine orange for 15 min at 37° C. were washed, irradiated and analyzed in Hanks balanced salt solution complemented with 3% fetal calf serum. Cells for single cell imaging were selected from 8 pre-defined areas of each well in transmitted light-mode after which the same cells were immediately visualized and exposed to blue light from USH102 100 W mercury arc burner (Ushio electric) installed in a U-ULS100HG housing (Olympus) for 20 sec. Fluorescence microscopy was performed on Olympus IX-70 inverted microscope with a […] 1×20 objective with NA=0.40. Loss of lysosomal pH gradient was quantified by counting the loss of intense red staining. A more elaborate method for assaying lysosomal integrity was developed to handle the larger lysosomal compartment of the various fibroblasts used in this study. Cells for single cell imaging were selected from 8 pre-defined areas of each well in transmitted light-mode after which the same cells were immediately and continuously exposed to 489 nm light from a 100 mW diode laser while laser scanning micrographs where captured every 330 ms on a Zeiss LSM LIVE DUO confocal system in two channels defined by bandpass filters for 495-555 nm (green) and LP650 nm (Red) light. The resulting timelapse movies where subsequently analysed by the integrated Zeiss LSM DUO software.

[2] = system: lysosomes of NPDA patient fibroblasts; assay: Lysosomal stability of NPDA fibroblasts (photo-oxidation, live single-cell imaging); type: cell-based, human; settings: NPDA fibroblasts, 24 h, 300 nM rHsp70, 150 nM rASM or combination
Experimental: Assays for lysosomal integrity. Sub-confluent cells incubated with 2 μg/ml acridine orange for 15 min at 37° C. were washed, irradiated and analyzed in Hanks balanced salt solution complemented with 3% fetal calf serum. Cells for single cell imaging were selected from 8 pre-defined areas of each well in transmitted light-mode after which the same cells were immediately visualized and exposed to blue light from USH102 100 W mercury arc burner (Ushio electric) installed in a U-ULS100HG housing (Olympus) for 20 sec. Fluorescence microscopy was performed on Olympus IX-70 inverted microscope with a LCPlanF1×20 objective with NA=0.40. Loss of lysosomal pH gradient was quantified by counting the loss of intense red staining. A more elaborate method for assaying lysosomal integrity was developed to handle the larger lysosomal compartment of the various fibroblasts used in this study. Cells for single cell imaging were selected from 8 pre-defined areas of each well in transmitted light-mode after which the same cells were immediately and continuously exposed to 489 nm light from a 100 mW diode laser while laser scanning micrographs where captured every 330 ms on a Zeiss LSM LIVE DUO confocal system in two channels defined by bandpass filters for 495-555 nm (green) and LP650 nm (Red) light. The resulting timelapse movies where subsequently analysed by the integrated Zeiss LSM DUO software. The total and cytoplasmic (digitonin-extracted) cathepsin activities were measured in digitonin-treated samples using zFR-AFC (Enzyme System Products) probe as described in the art.

NPDA fibroblasts = assay: Lysosomal area of confocal cross sections, NPDA fibroblasts; type: cell-based, human; settings: NPDA fibroblasts, 24 h, 300 nM rHsp70 or W90F, 150 nM rASM or combination
From the text: Immunodetection and microscopy. Primary antibodies used included mouse monoclonal antibodies against Hsp70 (2H9; kindly provided by Boris Margulis, Russian Academy of Sciences, St. Petersburg, Russia), glyceraldehyde-3-phosphate dehydrogenase (GAPDH; Biogenesis), BMP (6C4), lysosomal integral membrane protein-1 (H5C6; developed by J. Thomas August and James E. K. Hildreth and obtained from the Developmental Studies Hybridoma Bank developed under the auspices of the NICHD and maintained by The University of Iowa, Department of Biological Sciences, Iowa City, USA). Proteins separated by 10% SDS-PAGE and transferred to a nitrocellulose membrane were detected by using indicated primary antibodies, appropriate peroxidase-conjugated secondary antibodies from Dako, ECL Western blotting reagents (Amersham), and Luminescent Image Reader (LAS-1000Plus, Fujifilm). For immunocytochemistry Alexa […] or Alexa Fluor®-488-conjugated secondary antibodies were used. Lysotracker Red® was used for live visualization of the lysosomal compartment. Fluorescence images were taken using a Zeiss Axiovert 100M laser scanning microscope. Lysotracker quantification and timelapse movies for lysosomal integrity were done on a Zeiss LSM LIVE DUO system.

BMP = assay: BIAcore surface plasmon resonance with immobilized BMP-containing LUVs; type: binding; settings: pH 4.5
Experimental: (§1) For preparation of LUVs a lipid mixture consisting of 10 mol % sphingomyelin, 50 mol % phosphatidylcholine, 20 mol % cholesterol and 20 mol % BMP dissolved in organic solvents, was dried under a stream of argon and rehydrated in Tris/HCl buffer (pH 7.4) (Kolzer et al., 2004). The mixture was freeze-thawed nine times in liquid nitrogen and then in an incubator at 37° C. After ultrasound bath for 15 min the mixture was passed 21 times through a polycarbonate membrane with a pore diameter of 100 nm. Surface plasmon resonance measurements were performed using a BIAcore 2000 system at 25° C. LUVs (total lipid concentration 0.1 mM) were immobilized on the surface of a L1 sensor chip (BIAcore) in PBS (loading buffer). The running buffer used was sodium acetate buffer (50 mM, pH 4.5). As a control, acid sphingomyelinase (0.2 μM, 60 μl in running buffer) was injected directly on the liposome surface. Response units between 4100 RU-5250RU were obtained. The protein of interest was injected in running buffer at a flow rate of 20 μl/min at the concentrations indicated. After injection a dissociation phase of 10 min was appended.
as §1, with “Surface Plasmon Resonance (BIAcore). For” for “For”, “7.4).” for “7.4) (Kolzer et al., 2004).”, “The protein of interest was injected in running buffer at a flow rate of 20 μl/min at the concentrations indicated. After injection a dissociation phase of 10 min was appended.” left out

[3] = system: acid sphingomyelinase (ASM), endogenous mutated and loaded rASM; assay: ASM activity of NPDA fibroblasts; type: cell-based, human; settings: 300 nM rHsp70 48 h, or 150 nM rASM alone or with 300 nM rHsp70 24 h
From the text: WT- and Hsp70-MEFs were generated, immortalized and maintained as described in the art. Human NPDA fibroblasts (83/24) originate from a skin biopsy of a patient with hepatosplenomegaly. Recombinant proteins were generated using the pET-16b vector system and Ni^2+-affinity-purification (Novagen), and labeled with Alexa Fluor 488 according to manufacturers protocol (Molecular Probes). To analyze the lysosomal integrity, we developed a real time imaging method of cells stained with acridine orange, a metachromatic weak base that accumulates in the acidic compartment of the cells staining them red and sensitizing them to photo-oxidation. The photo-oxidation-induced loss of the lysosomal pH-gradient and leakage of acridine orange to the cytosol from individual lysosomes was quantified visually as “loss of red dots” in U2-O—S cells and as a decrease in red and an increase in green fluorescence by Zeiss LSM DUO Software in fibroblasts. The total and cytoplasmic (digitonin-extracted) cathepsin activities were measured in digitonin-treated samples using zFR-AFC (Enzyme System Products) probe as described in the art. The tryptophan fluorescence spectra and liposome 900 light scattering were analyzed in a HEPES buffer (20 mM HEPES, 0.1 mM EDTA, pH as indicated) essentially as described in the art. […]

ASM activity [3]	Molecule	desipramine-induced cell death and lysosomal leakage in Hsp70-MEFs as compared to WT-MEFs (WT and Hsp70 iMEFs)	viability (MTT reduction) (WT and Hsp70 iMEFs; MEFs)	permeabilization of lysosomes (leakage of lysosomal cathepsins into the cytosol) [1]	lysosomal stress resistance upon photo-oxidation (lysosomes of Hsp70-MEFs)	lysosomal stability [2]	lysosomal area / volume of the lysosomal compartment (NPDA fibroblasts)	affinity for BMP compared to that of Hsp70 (BMP)
–	CNCCCN1c2ccccc2CCc2ccccc21 [desipramine]	significantly reduced	reduced the viability of MEFs in a dose-dependent manner	massive permeabilization of lysosomes	reverted the lysosomal stress resistance of Hsp70-MEFs to the level of WT-MEFs	–	–	–
increased ASM activity	B1	–	–	–	–	ability to stabilize the lysosomes	normalize the volume of the dramatically enlarged lysosomal compartment	half
